Assay results taken from the NIST ThermoML archive (doi:10.1021/je700671t).

Assay: xn = mol fraction of the nth substance listed
Conditions: 101 kPa, Liquid; for viscosity: Capillary tube (Ostwald / Ubbelohde) method

CN(C)C=O [dimethylformamide] + O
Conditions	mass density [kg/m3]	viscosity [mPa·s]
283.15 K, x1 = 0.02	1000.31	–
283.15 K, x1 = 0.04	1001.42	–
283.15 K, x1 = 0.06	1002.8	–
283.15 K, x1 = 0.08	1004.13	–
283.15 K, x1 = 0.1	1005.32	–
283.15 K, x1 = 0.2	1007.64	–
283.15 K, x1 = 0.3	1004.4	–
283.15 K, x1 = 0.398	997.83	–
283.15 K, x1 = 0.498	990.56	–
283.15 K, x1 = 0.599	983.02	–
283.15 K, x1 = 0.697	976.07	–
283.15 K, x1 = 0.798	969.84	–
283.15 K, x1 = 1	958.96	–
288.15 K, x1 = 0.02	999.23	–
288.15 K, x1 = 0.04	999.91	–
288.15 K, x1 = 0.06	1000.87	–
288.15 K, x1 = 0.08	1001.82	–
288.15 K, x1 = 0.1	1002.67	–
288.15 K, x1 = 0.2	1003.86	–
288.15 K, x1 = 0.3	1000.1	–
288.15 K, x1 = 0.398	993.31	–
288.15 K, x1 = 0.498	985.94	–
288.15 K, x1 = 0.599	978.36	–
288.15 K, x1 = 0.697	971.37	–
288.15 K, x1 = 0.798	965.11	–
288.15 K, x1 = 1	954.17	–
293.15 K, x1 = 0.02	997.92	1.234
293.15 K, x1 = 0.04	998.2	1.442
293.15 K, x1 = 0.06	998.77	1.656
293.15 K, x1 = 0.08	999.37	1.847
293.15 K, x1 = 0.1	999.9	2.062
293.15 K, x1 = 0.2	1000.01	2.782
293.15 K, x1 = 0.3	995.76	2.954
293.15 K, x1 = 0.398	988.76	2.622
293.15 K, x1 = 0.498	981.3	2.162
293.15 K, x1 = 0.599	973.67	1.713
293.15 K, x1 = 0.697	966.65	1.377
293.15 K, x1 = 0.798	960.37	1.153
293.15 K, x1 = 1	949.39	0.864
298.15 K, x1 = 0.02	996.39	–
298.15 K, x1 = 0.04	996.31	–
298.15 K, x1 = 0.06	996.53	–
298.15 K, x1 = 0.08	996.8	–
298.15 K, x1 = 0.1	997.03	–
298.15 K, x1 = 0.2	996.13	–
298.15 K, x1 = 0.3	991.4	–
298.15 K, x1 = 0.398	984.18	–
298.15 K, x1 = 0.498	976.64	–
298.15 K, x1 = 0.599	968.96	–
298.15 K, x1 = 0.697	961.92	–
298.15 K, x1 = 0.798	955.63	–
298.15 K, x1 = 1	944.6	–
303.15 K, x1 = 0.02	994.67	0.97
303.15 K, x1 = 0.04	994.25	1.114
303.15 K, x1 = 0.06	994.14	1.269
303.15 K, x1 = 0.08	994.11	1.407
303.15 K, x1 = 0.1	994.05	1.55
303.15 K, x1 = 0.2	992.19	2.051
303.15 K, x1 = 0.3	986.99	2.179
303.15 K, x1 = 0.398	979.57	1.979
303.15 K, x1 = 0.498	971.95	1.675
303.15 K, x1 = 0.599	964.24	1.382
303.15 K, x1 = 0.697	957.18	1.149
303.15 K, x1 = 0.798	950.87	0.985
303.15 K, x1 = 1	939.83	0.766
308.15 K, x1 = 0.02	992.74	–
308.15 K, x1 = 0.04	992.03	–
308.15 K, x1 = 0.06	991.61	–
308.15 K, x1 = 0.08	991.29	–
308.15 K, x1 = 0.1	990.98	–
308.15 K, x1 = 0.2	988.2	–
308.15 K, x1 = 0.3	982.55	–
308.15 K, x1 = 0.398	974.94	–
308.15 K, x1 = 0.498	967.24	–
308.15 K, x1 = 0.599	959.49	–
308.15 K, x1 = 0.697	952.42	–
308.15 K, x1 = 0.798	946.1	–
308.15 K, x1 = 1	935.05	–
313.15 K, x1 = 0.02	990.67	0.783
313.15 K, x1 = 0.04	989.66	0.891
313.15 K, x1 = 0.06	988.95	1.003
313.15 K, x1 = 0.08	988.37	1.103
313.15 K, x1 = 0.1	987.8	1.208
313.15 K, x1 = 0.2	984.15	1.564
313.15 K, x1 = 0.3	978.07	1.66
313.15 K, x1 = 0.398	970.26	1.538
313.15 K, x1 = 0.498	962.5	1.337
313.15 K, x1 = 0.599	954.73	1.14
313.15 K, x1 = 0.697	947.64	0.971
313.15 K, x1 = 0.798	941.33	0.847
313.15 K, x1 = 1	930.27	0.684
318.15 K, x1 = 0.02	988.43	–
318.15 K, x1 = 0.04	987.14	–
318.15 K, x1 = 0.06	986.17	–
318.15 K, x1 = 0.08	985.33	–
318.15 K, x1 = 0.1	984.53	–
318.15 K, x1 = 0.2	980.05	–
318.15 K, x1 = 0.3	973.55	–
318.15 K, x1 = 0.398	965.56	–
318.15 K, x1 = 0.498	957.73	–
318.15 K, x1 = 0.599	949.93	–
318.15 K, x1 = 0.697	942.85	–
318.15 K, x1 = 0.798	936.53	–
318.15 K, x1 = 1	925.49	–
323.15 K, x1 = 0.02	986	0.648
323.15 K, x1 = 0.04	984.49	0.729
323.15 K, x1 = 0.06	983.26	0.812
323.15 K, x1 = 0.08	982.19	0.892
323.15 K, x1 = 0.1	981.17	0.965
323.15 K, x1 = 0.2	975.89	1.228
323.15 K, x1 = 0.3	968.99	1.3
323.15 K, x1 = 0.398	960.81	1.228
323.15 K, x1 = 0.498	952.92	1.087
323.15 K, x1 = 0.599	945.11	0.961
323.15 K, x1 = 0.697	938.03	0.831
323.15 K, x1 = 0.798	931.73	0.74
323.15 K, x1 = 1	920.71	0.617
328.15 K, x1 = 0.02	983.51	–
328.15 K, x1 = 0.04	981.71	–
328.15 K, x1 = 0.06	980.24	–
328.15 K, x1 = 0.08	978.94	–
328.15 K, x1 = 0.1	977.71	–
328.15 K, x1 = 0.2	971.68	–
328.15 K, x1 = 0.3	964.38	–
328.15 K, x1 = 0.398	956.04	–
328.15 K, x1 = 0.498	948.09	–
328.15 K, x1 = 0.599	940.27	–
328.15 K, x1 = 0.697	933.2	–
328.15 K, x1 = 0.798	926.91	–
328.15 K, x1 = 1	915.92	–
333.15 K, x1 = 0.02	980.84	0.548
333.15 K, x1 = 0.04	978.81	0.613
333.15 K, x1 = 0.06	977.1	0.675
333.15 K, x1 = 0.08	975.59	0.736
333.15 K, x1 = 0.1	974.16	0.792
333.15 K, x1 = 0.2	967.4	0.992
333.15 K, x1 = 0.3	959.73	1.046
333.15 K, x1 = 0.398	951.22	1.001
333.15 K, x1 = 0.498	943.22	0.905
333.15 K, x1 = 0.599	935.4	0.81
333.15 K, x1 = 0.697	928.34	0.722
333.15 K, x1 = 0.798	922.08	0.654
333.15 K, x1 = 1	911.13	0.559
338.15 K, x1 = 0.02	978.04	–
338.15 K, x1 = 0.04	975.81	–
338.15 K, x1 = 0.06	973.86	–
338.15 K, x1 = 0.08	972.14	–
338.15 K, x1 = 0.1	970.51	–
338.15 K, x1 = 0.2	963.07	–
338.15 K, x1 = 0.3	955.03	–
338.15 K, x1 = 0.398	946.36	–
338.15 K, x1 = 0.498	938.32	–
338.15 K, x1 = 0.599	930.49	–
338.15 K, x1 = 0.697	923.46	–
338.15 K, x1 = 0.798	917.22	–
338.15 K, x1 = 1	906.32	–
343.15 K, x1 = 0.02	975.12	0.474
343.15 K, x1 = 0.04	972.66	0.526
343.15 K, x1 = 0.06	970.5	0.575
343.15 K, x1 = 0.08	968.59	0.624
343.15 K, x1 = 0.1	966.78	0.666
343.15 K, x1 = 0.2	958.67	0.821
343.15 K, x1 = 0.3	950.29	0.866
343.15 K, x1 = 0.398	941.46	0.837
343.15 K, x1 = 0.498	933.38	0.764
343.15 K, x1 = 0.599	925.56	0.701
343.15 K, x1 = 0.697	918.55	0.636
343.15 K, x1 = 0.798	912.34	0.583
343.15 K, x1 = 1	901.51	0.51
348.15 K, x1 = 0.02	972.14	–
348.15 K, x1 = 0.04	969.42	–
348.15 K, x1 = 0.06	967.1	–
348.15 K, x1 = 0.08	964.94	–
348.15 K, x1 = 0.1	962.96	–
348.15 K, x1 = 0.2	954.21	–
348.15 K, x1 = 0.3	945.49	–
348.15 K, x1 = 0.398	936.52	–
348.15 K, x1 = 0.498	928.4	–
348.15 K, x1 = 0.599	920.59	–
348.15 K, x1 = 0.697	913.61	–
348.15 K, x1 = 0.798	907.45	–
348.15 K, x1 = 1	896.69	–
353.15 K, x1 = 0.02	968.96	0.417
353.15 K, x1 = 0.04	966.06	0.459
353.15 K, x1 = 0.06	963.53	0.499
353.15 K, x1 = 0.08	961.2	0.539
353.15 K, x1 = 0.1	959.05	0.572
353.15 K, x1 = 0.2	949.69	0.694
353.15 K, x1 = 0.3	940.64	0.727
353.15 K, x1 = 0.398	931.54	0.707
353.15 K, x1 = 0.498	923.39	0.659
353.15 K, x1 = 0.599	915.59	0.614
353.15 K, x1 = 0.697	908.64	0.563
353.15 K, x1 = 0.798	902.52	0.525
353.15 K, x1 = 1	891.86	0.47
